Results published in ChEMBL document CHEMBL1123022, “S-(nitrocarbobenzoxy)glutathiones: potent competitive inhibitors of mammalian glyoxalase II” (J Med Chem, 1985).

How the values were obtained:
[1] = molecular target: Hydroxyacylglutathione hydrolase, mitochondrial (Rattus norvegicus, UniProt O35952); test: Binding affinity towards rat liver glyoxalase II
[2] = molecular target: Hydroxyacylglutathione hydrolase, mitochondrial (Rattus norvegicus) (UniProt O35952); test: […] inhibitory activity against rat liver glyoxalase II
[3] = molecular target: T1, Lactoylglutathione lyase (Rattus norvegicus) (UniProt Q6P7Q4); test: […] inhibitory activity against rat liver glyoxalase I
T1 sequence (whole entry): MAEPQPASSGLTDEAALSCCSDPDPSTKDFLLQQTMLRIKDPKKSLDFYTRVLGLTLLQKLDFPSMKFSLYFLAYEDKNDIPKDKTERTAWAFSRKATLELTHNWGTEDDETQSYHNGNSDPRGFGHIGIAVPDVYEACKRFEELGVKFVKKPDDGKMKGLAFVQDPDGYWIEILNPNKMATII

Ki [1] [µM]	[I] 0.5 [2] [µM]	[I] 0.5 [3] [µM]	Structure (SMILES)
65	165		NC(CCC(=O)NC(CSC(=O)OCc1ccccc1)C(=O)NCC(=O)O)C(=O)O (centres undefined)
9	15		NC(CCC(=O)NC(CSC(=O)OCc1cccc([N+](=O)[O-])c1)C(=O)NCC(=O)O)C(=O)O (centres undefined)
6.5	12	925	NC(CCC(=O)NC(CSC(=O)OCc1ccc([N+](=O)[O-])cc1)C(=O)NCC(=O)O)C(=O)O (centres undefined)
15	20		NC(CCC(=O)NC(CSC(=O)OCc1ccccc1[N+](=O)[O-])C(=O)NCC(=O)O)C(=O)O (centres undefined)
